Tested on: Human astrocyte cells
Assay: Multiplex ELISA of cytokine concentrations in astrocyte culture media
Format: cell-based
Details: for % Change of Cytokine Concentration IL-1α, GIT 27 vs DMSO treated vehicle / % Change of Cytokine Concentration IL-1β, GIT 27 vs DMSO treated vehicle / % Change of Cytokine Concentration IL-6, GIT 27 vs DMSO treated vehicle / % Change of Cytokine Concentration IL-8, GIT 27 vs DMSO treated vehicle / % Change of Cytokine Concentration IL-10, GIT 27 vs DMSO treated vehicle / % Change of Cytokine Concentration TNF-α, GIT 27 vs DMSO treated vehicle: GIT 27 1000 μg/mL
Description: Media Creation: A media stock solution was created by combining astrocyte media (ScienCell), supplement kit, 10 mL fetal bovine serum (FBS), 5 mL penicillin/streptomycin, and 5 mL astrocyte growth serum (ScienCell), and an additional 10 mL FBS (ScienCell). IL-1β and IL-10 were diluted to a concentration of 50,000 ng/mL and 100,000 ng/mL, respectively, in phosphate buffer solution (PBS, w/v). GIT 27 was dissolved in a dimethyl sulfoxide (DMSO) vehicle (Sigma-Aldrich) to a concentration of 20 mg/mL (w/v).
Media solutions for the different groups were made directly before each media change. Cytokines IL-1β or IL-10 were added to the media stock solution for a final concentration of 14.67 ng/mL. GIT 27 was added for a concentration of 1000 μg/mL in the media stock solution for our experimental group. […] Our vehicle group contained 50 μL/mL DMSO alone, which is proportional to the amount in the GIT 27 treated group. Concentrations were then made for evaluation of dose and time dependency (FIGS. 6A-6F).
Cell Culture: Human astrocyte cells were initially grown in T75 flasks with media changes every three days using basic astrocyte media and washed with Hanks Balanced Salt Solution without Calcium and Magnesium (Gibco). Once the flasks came to confluency, the cells were trypsinized using Trypsin-EDTA at 0.25% (Gibco) and seeded at a seeding density of 250,000 cells per well. These samples were broken up into three treatment groups: control, DMSO, and GIT 27 tested as a pre-treatment, simultaneous treatment, and post-treatment (FIGS. 6A-6F). Each group and treatment time were then either exposed to IL-1β or IL-10 separately at concentrations described for media creation.
ELISA: As previously published, the Bursky Center for Human Immunology & Immunotherapy Programs Immunomonitoring Laboratory at Washington University School of Medicine ran the multiplex assays according to the manufacturer's protocol (Khodadadei et al., bioRxiv 2021.11.04.467357, 2021. https://doi.org/10.1101/2021.11.04.467357). Samples of culture media analyzed were collected on days 1, 5, 7, 9, 12, and 14 of culture following seeding day. Each frozen supernatant media sample was rapidly thawed at 37° C. and centrifuged at 15,000 G for five minutes prior to incubating with the two-multiplex immunoassay for the following inflammatory cytokines: IL-1α, IL-1β, IL-6, TNF-α, IL-8, IL-10 (ThermoFisher Scientific), C3, and C1q (Millipore Sigma). Magnetic beads and assay buffer were added to all the wells of a 96 well-plate. Media samples and standards were then added in duplicate. The wells were thoroughly washed, and the detection antibody was then added followed by a streptavidin phycoerythrin incubation. Beads were resuspended with sheath fluid and 50 beads per region were acquired on a Luminex FLEXMAP3D system. The concentration of each analyte was then calculated by comparing the sample mean fluorescent intensity to the appropriate standard curve. Belysa v.1 software (Millipore Sigma) was used to generate a 5-parameter logistical curve fit algorithm. Protein concentration is reported as pg/mL for each analyte.
Statistical Analysis: Three conditions were tested in this experiment, treatment group, treatment time, and IL B or IL10 exposure, with a total of 16 different samples tested with an n=five of replicates. The three treatment groups tested were a control, vehicle control (DMSO), and GIT 27 (G27). Each treatment group was tested as a pre-treatment (denoted Pre-), dose simultaneous to treatment (denoted Sim-), and post-treatment (denoted Post-) as time points with respect to shunt insertion represented by exposure to either IL-1β (IL1B) or IL-10 (IL10). Utilizing the abbreviations described here we combined these to allow for an easier understand of the results presented. An example of this can be control Pre-IL1B, DMSO Pre-IL1B, and G27 Pre-IL1B which represents the three treatment groups when used as a pre-treatment to IL-1β exposure.

[1] = G27 Sim-IL1B compared to G27 Post-IL1B
[2] = G27 Sim-IL1B compared to G27 Pre-IL1B
[3] = G27 Sim-IL10 compared to both G27 Pre-IL10 and G27 Post-IL10
[4] = Post-IL10, vs control Post-IL10
[5] = Post-Treatment (C), exposed to IL-1β
[6] = Post-Treatment (C), exposed to IL-10
[7] = Pre-IL1B, vs DMSO Pre-IL1B (not vs control)
[8] = Pre-Treatment (A), exposed to IL-1β
[9] = Pre-Treatment (A), exposed to IL-10
[10] = Simultaneous Treatment (B), exposed to IL-1β
[11] = Simultaneous Treatment (B), exposed to IL-10

O=C(O)CC1CC(c2ccccc2)=NO1 (centres unmarked) [GIT 27, 4,5-Dihydro-3-phenyl-5-isoxazoleacetic acid]
IL-10 concentration by treatment time (G27 Post-IL10 compared to G27 Sim-IL10): significantly lower | TNF-α concentration by treatment time (G27 Pre-IL10 compared to G27 Sim-IL10 and G27 Post-IL10): significantly higher | IL-6 concentration by treatment time [1]: significantly lower | TNF-α concentration by treatment time [1]: significantly lower | IL-10 concentration by treatment time [2]: lower | TNF-α concentration by treatment time [2]: lower | IL-1α concentration by treatment time [3]: significantly higher | IL-1β concentration by treatment time [3]: significantly higher | IL-1α concentration compared to both control and DMSO (Post-IL1B): significantly lower | IL-10 concentration compared to both control and DMSO (Post-IL1B): significantly lower | IL-6 concentration compared to DMSO (Post-IL1B, vs DMSO Post-IL1B): significantly lower | IL-8 concentration compared to DMSO (Post-IL1B, vs DMSO Post-IL1B): significantly lower | TNF-α concentration compared to DMSO (Post-IL1B, vs DMSO Post-IL1B): significantly lower | IL-1α concentration compared to control and DMSO (Post-IL10): significantly lower | IL-6 concentration compared to control and DMSO (Post-IL10): significantly lower | IL-8 concentration compared to control and DMSO (Post-IL10): significantly lower | TNF-α concentration compared to DMSO (Post-IL10, vs DMSO Post-IL10): significantly lower | IL-10 concentration compared to control [4]: significantly lower | TNF-α concentration compared to control [4]: significantly lower | % Change of Cytokine Concentration IL-1α, GIT 27 vs DMSO treated vehicle [5]: −20.17% | % Change of Cytokine Concentration IL-1β, GIT 27 vs DMSO treated vehicle [5]: −16.52% | % Change of Cytokine Concentration IL-6, GIT 27 vs DMSO treated vehicle [5]: −28.57% | % Change of Cytokine Concentration IL-8, GIT 27 vs DMSO treated vehicle [5]: −57.49% | % Change of Cytokine Concentration IL-10, GIT 27 vs DMSO treated vehicle [5]: −33.02% | % Change of Cytokine Concentration TNF-α, GIT 27 vs DMSO treated vehicle [5]: −33.45% | % Change of Cytokine Concentration IL-1α, GIT 27 vs DMSO treated vehicle [6]: −85.58% | % Change of Cytokine Concentration IL-1β, GIT 27 vs DMSO treated vehicle [6]: 0.00% | % Change of Cytokine Concentration IL-6, GIT 27 vs DMSO treated vehicle [6]: −76.82% | % Change of Cytokine Concentration IL-8, GIT 27 vs DMSO treated vehicle [6]: −78.86% | % Change of Cytokine Concentration IL-10, GIT 27 vs DMSO treated vehicle [6]: −71.33% | % Change of Cytokine Concentration TNF-α, GIT 27 vs DMSO treated vehicle [6]: −80.45% | IL-1α concentration, difference between treatment groups (Pre-IL1B): no significant difference | IL-8 concentration, difference between treatment groups (Pre-IL1B): no significant difference | IL-10 concentration, difference between treatment groups (Pre-IL1B): no significant difference | TNF-α concentration, difference between treatment groups (Pre-IL1B): no significant difference | IL-1β concentration compared to DMSO [7]: significantly lower | IL-6 concentration compared to DMSO [7]: significantly lower | any of the cytokine concentrations, difference between treatment groups (Pre-IL10): no significant difference | % Change of Cytokine Concentration IL-1α, GIT 27 vs DMSO treated vehicle [8]: −30.49% | % Change of Cytokine Concentration IL-1β, GIT 27 vs DMSO treated vehicle [8]: −42.70% | % Change of Cytokine Concentration IL-6, GIT 27 vs DMSO treated vehicle [8]: −76.60% | % Change of Cytokine Concentration IL-8, GIT 27 vs DMSO treated vehicle [8]: −31.56% | % Change of Cytokine Concentration IL-10, GIT 27 vs DMSO treated vehicle [8]: 26908.58% | % Change of Cytokine Concentration TNF-α, GIT 27 vs DMSO treated vehicle [8]: −12.41% | % Change of Cytokine Concentration IL-1α, GIT 27 vs DMSO treated vehicle [9]: 11.34% | % Change of Cytokine Concentration IL-1β, GIT 27 vs DMSO treated vehicle [9]: 0.00% | % Change of Cytokine Concentration IL-6, GIT 27 vs DMSO treated vehicle [9]: 21.96% | % Change of Cytokine Concentration IL-8, GIT 27 vs DMSO treated vehicle [9]: −43.65% | % Change of Cytokine Concentration IL-10, GIT 27 vs DMSO treated vehicle [9]: −6.42% | % Change of Cytokine Concentration TNF-α, GIT 27 vs DMSO treated vehicle [9]: −13.92% | IL-1α concentration compared to control (Sim-IL1B, vs control Sim-IL1B): significantly lower | IL-1β concentration compared to control (Sim-IL1B, vs control Sim-IL1B): significantly lower | IL-10 concentration compared to control (Sim-IL1B, vs control Sim-IL1B): significantly lower | TNF-α concentration compared to control (Sim-IL1B, vs control Sim-IL1B): significantly lower | IL-1α concentration compared to DMSO and control (Sim-IL10): significantly decrease | IL-8 concentration compared to DMSO and control (Sim-IL10): significantly decrease | IL-10 concentration compared to both DMSO and control (Sim-IL10): significantly lower | TNF-α concentration compared to control (Sim-IL10): significantly lowered | % Change of Cytokine Concentration IL-1α, GIT 27 vs DMSO treated vehicle [10]: −40.83% | % Change of Cytokine Concentration IL-1β, GIT 27 vs DMSO treated vehicle [10]: −8.24% | % Change of Cytokine Concentration IL-6, GIT 27 vs DMSO treated vehicle [10]: 31.97% | % Change of Cytokine Concentration IL-8, GIT 27 vs DMSO treated vehicle [10]: −34.82% | % Change of Cytokine Concentration IL-10, GIT 27 vs DMSO treated vehicle [10]: −31.11% | % Change of Cytokine Concentration TNF-α, GIT 27 vs DMSO treated vehicle [10]: −8.65% | % Change of Cytokine Concentration IL-1α, GIT 27 vs DMSO treated vehicle [11]: −66.52% | % Change of Cytokine Concentration IL-1β, GIT 27 vs DMSO treated vehicle [11]: −89.31% | % Change of Cytokine Concentration IL-6, GIT 27 vs DMSO treated vehicle [11]: −28.89% | % Change of Cytokine Concentration IL-8, GIT 27 vs DMSO treated vehicle [11]: −81.04% | % Change of Cytokine Concentration IL-10, GIT 27 vs DMSO treated vehicle [11]: −49.58% | % Change of Cytokine Concentration TNF-α, GIT 27 vs DMSO treated vehicle [11]: −53.95% | IFN-γ concentration (any of the treatment groups): no detectable concentration

Source: patent US20240374879A1, “METHODS AND COMPOSITIONS TO REDUCE CELLULAR DEPOSITION, AND HYDROCEPHALUS SHUNT FAILURE” (Wayne State University, priority 2021, published 2024)
